Measured values: paper PMC8815882, “Screening the pandemic response box identified benzimidazole carbamates, Olorofim and ravuconazole as promising drug candidates for the treatment of eumycetoma” (PLoS Neglected Tropical Diseases, 2022)
Where two headings read alike, the source gives them in different places. Peptide text beside a SMILES is read from it.

Test system: M. mycetomatis genome strain MM55
Experiment: CLSI M38-A2 based in vitro susceptibility screening (XTT or resazurin), growth at fixed concentration
Assay type: cell-based, Madurella mycetomatis
[1] = Madurella mycetomatis, 25 uM, mean of three replicates, read-out: Percentage survival at 25um, 25 uM mean
[2] = Madurella mycetomatis, 25 uM, replicate A, read-out: Percentage survival at 25um, 25 um A
[3] = Madurella mycetomatis, 25 uM, replicate B, read-out: Percentage survival at 25um, 25 uM B
[4] = Madurella mycetomatis, 25 uM, replicate C, read-out: Percentage survival at 25um, 25 uM C
[5] = Madurella mycetomatis, 100 uM, mean of three replicates, read-out: Percentage survival at 100um, 100 uM mean
[6] = Madurella mycetomatis, 25 uM, mean, read-out: Percentage survival at 25um, 25 uM mean
[7] = Madurella mycetomatis, 100 uM, mean, read-out: Percentage survival at 100um, 100 uM mean
[8] = Madurella mycetomatis, 100 uM, replicate (first column), read-out: Percentage survival at 100um, 100 uM A
[9] = Madurella mycetomatis, 100 uM, replicate (second column), read-out: Percentage survival at 100um, 100 uM A
[10] = Madurella mycetomatis, 100 uM, replicate (third column), read-out: Percentage survival at 100um, 100 uM A
[11] = Madurella mycetomatis, 100 uM, first replicate column, read-out: Percentage survival at 100um, 100 uM A
[12] = Madurella mycetomatis, 100 uM, second replicate column, read-out: Percentage survival at 100um, 100 uM A
[13] = Madurella mycetomatis, 100 uM, third replicate column, read-out: Percentage survival at 100um, 100 uM A
[14] = Madurella mycetomatis, 25 uM, mean of replicates, MM55, read-out: Percentage survival at 25um, 25 uM mean
[15] = Madurella mycetomatis, 25 uM, replicate A, MM55, read-out: Percentage survival at 25um, 25 um A
[16] = Madurella mycetomatis, 25 uM, replicate B, MM55, read-out: Percentage survival at 25um, 25 uM B
[17] = Madurella mycetomatis, 25 uM, replicate C, MM55, read-out: Percentage survival at 25um, 25 uM C
[18] = Madurella mycetomatis, 100 uM, mean of replicates, MM55, read-out: Percentage survival at 100um, 100 uM mean
[19] = Madurella mycetomatis, 100 uM, replicate 1, MM55, read-out: Percentage survival at 100um, 100 uM A
[20] = Madurella mycetomatis, 100 uM, replicate 2, MM55, read-out: Percentage survival at 100um, 100 uM A
[21] = Madurella mycetomatis, 100 uM, replicate 3, MM55, read-out: Percentage survival at 100um, 100 uM A

SMILES	activity at 25 µM [1] [%]	activity at 25 µM [2] [%]	activity at 25 µM [3] [%]	activity at 25 µM [4] [%]	activity at 100 µM [5] [%]	activity at 25 µM [14] [%]	activity at 25 µM [15] [%]	activity at 25 µM [16] [%]	activity at 25 µM [17] [%]	activity at 100 µM [18] [%]	activity at 100 µM [19] [%]	activity at 100 µM [20] [%]	activity at 100 µM [21] [%]	other results
CC(N)C(=O)NC(CCCCN)C(=O)NC(CCCNC(=N)N)C(=O)NC(Cc1c[nH]cn1)C(=O)NC(Cc1c[nH]cn1)C(=O)NCC(=O)NC(Cc1ccc(O)cc1)C(=O)NC(CCCCN)C(=O)NC(CCCNC(=N)N)C(=O)NC(CCCCN)C(=O)NC(Cc1ccccc1)C(=O)NC(Cc1c[nH]cn1)C(N)=O (centres unmarked) [MMV1579849] (H-AKRHHGYKRKFH-NH2; configuration not given here)	–	–	–	–	–	–	–	–	–	–	–	–	–	Percentage survival at 25um, 25 uM mean (25 uM, mean of three, M. mycetomatis MM55): 88.4824%; Percentage survival at 25um, 25 um A (25 uM, replicate A, M. mycetomatis MM55): 86.8656%; Percentage survival at 25um, 25 uM B (25 uM, replicate B, M. mycetomatis MM55): 93.5744%; Percentage survival at 25um, 25 uM C (25 uM, replicate C, M. mycetomatis MM55): 85.0073%; Percentage survival at 100um, 100 uM mean (100 uM, mean of three, M. mycetomatis MM55): 95.7644%; Percentage survival at 100um, 100 uM A (first replicate column) (100 uM, replicate 1, M. mycetomatis MM55): 92.1348%; Percentage survival at 100um, 100 uM A (second replicate column) (100 uM, replicate 2, M. mycetomatis MM55): 102.447%; Percentage survival at 100um, 100 uM A (third replicate column) (100 uM, replicate 3, M. mycetomatis MM55): 92.7112%
N[C@@H]1CN(c2c(F)cc3c(=O)c(C(=O)O)cn([C@@H]4C[C@@H]4F)c3c2Cl)CC12CC2 [MMV1579850]	85.6	82.4	85.7	88.6	83.7	–	–	–	–	–	–	–	–	activity at 100 µM (Madurella mycetomatis, 100 uM, replicate 1, read-out: Percentage survival at 100um, 100 uM A (first replicate column)): 86.1%; Percent fungal survival at 100 µM (Madurella mycetomatis, 100 uM, replicate 2, read-out: Percentage survival at 100um, 100 uM A (second replicate column)): 82.9%; activity at 100 µM (Madurella mycetomatis, 100 uM, replicate 3, read-out: Percentage survival at 100um, 100 uM A (third replicate column)): 82%
O=C(O)c1ccccc1Sc1ncnc2sc3c(c12)CCC3 [MMV1579878]	–	89.3	87	74.1	–	–	–	–	–	–	–	–	–	activity at 25 µM [6]: 83.5%; activity at 100 µM [7]: 57%; activity at 100 µM [8]: 1.56%; activity at 100 µM [9]: 73.3%; activity at 100 µM [10]: 96.2%
COc1cc(NCc2ccc3nc(N)nc(N)c3c2C)cc(OC)c1OC [MMV1580173]	–	96.5	46.2	78.3	–	–	–	–	–	–	–	–	–	activity at 25 µM [6]: 73.6%; activity at 100 µM [7]: 55.4%; activity at 100 µM [8]: 74.1%; activity at 100 µM [9]: 4.19%; activity at 100 µM [10]: 88%
C[C@H](Cn1cnc2c(N)ncnc21)OCP(=O)(O)O [MMV1580478]	99.2	98.1	110	89.5	89	–	–	–	–	–	–	–	–	activity at 100 µM [11]: 94.5%; activity at 100 µM [12]: 87.6%; activity at 100 µM [13]: 84.8%
CN(C)CC(=O)Nc1ccc2[nH]c(=O)c3ccccc3c2c1 [MMV1580480]	–	–	–	–	–	94.3	106	107	70.4	76.4	87.1	63.4	78.7	–
COc1ccccc1NC(=O)c1ccccc1Sc1ccc([N+](=O)[O-])cc1 [MMV1580484]	65.2	65.9	69.7	60.2	60.4	–	–	–	–	–	–	–	–	activity at 100 µM [11]: 60.9%; activity at 100 µM [12]: 56%; activity at 100 µM [13]: 64.4%
COc1ccc(OCc2ccc(COc3c(Cl)cccc3Cl)cc2)c(Cl)c1 [MMV1580485]	–	–	–	–	–	89.3	92.6	89.4	85.7	77.9	89.9	70.7	73.2	–
Cc1nc(N(C)C(=O)Cc2ccc(-c3ccccn3)cc2)sc1S(N)(=O)=O [MMV1580486]	–	–	–	–	–	82.6	102	96.5	49.6	83.5	93.3	93.6	63.7	–
C/C(=N\NC(=O)C1CC1c1ccccc1)c1ccc(NC(=O)c2ccco2)cc1 (centres unmarked) [MMV1580487]	–	–	–	–	–	83.7	79.1	93.7	78.4	85.2	91.2	88	76.5	–
